Results taken from patent US20240150377A1, “MODULATORS OF CYSTIC FIBROSIS TRANSMEMBRANE CONDUCTANCE REGULATOR” (VERTEX PHARMACEUTICALS INCORPORATED, priority 2020, published 2024).
Like-named read-outs stand apart in the source and are kept apart here. Blank lines part the entries; values can stand above or below the molecule they belong to.

Key:
CFTR = target: T1, CFTR (Homo sapiens, UniProt P13569, DEL508-508); assay: HBE assay: Ussing chamber assay of CFTR-mediated short-circuit currents; format: cell-based; details: for EC50: read-out: HBE EC50
T1 construct: endogenous in cells; host or cells: primary human bronchial epithelial cells from CF subjects (F508del/MF-HBE), differentiated at air-liquid interface
Procedure, shortened: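 CFTR-mediated Isc (μA/cm²) equals the peak response to apical 20 μM forskolin minus the residual after a 20 μM each BPO/GlyH-101/CFTR inhibitor 172 cocktail, recorded in Ussing chambers at Vhold 0 mV, 37 °C, pH 7.4, with 30 μM apical amiloride. Cells were F508del/MF HBE cultures preincubated 18-24 h with corrector (concentration range or 10 μM) plus 1 μM ivacaftor in 20% human serum.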

[1] = amide bond, 13-membered ring, DMF
[2] = Table 11, read-out: HBE Max Activity (%)
[3] = Table 11, read-out: HBE Activity at 10 μM (%)

T1 sequence (P13569 with tags, fused parts or gaps DEL508-508): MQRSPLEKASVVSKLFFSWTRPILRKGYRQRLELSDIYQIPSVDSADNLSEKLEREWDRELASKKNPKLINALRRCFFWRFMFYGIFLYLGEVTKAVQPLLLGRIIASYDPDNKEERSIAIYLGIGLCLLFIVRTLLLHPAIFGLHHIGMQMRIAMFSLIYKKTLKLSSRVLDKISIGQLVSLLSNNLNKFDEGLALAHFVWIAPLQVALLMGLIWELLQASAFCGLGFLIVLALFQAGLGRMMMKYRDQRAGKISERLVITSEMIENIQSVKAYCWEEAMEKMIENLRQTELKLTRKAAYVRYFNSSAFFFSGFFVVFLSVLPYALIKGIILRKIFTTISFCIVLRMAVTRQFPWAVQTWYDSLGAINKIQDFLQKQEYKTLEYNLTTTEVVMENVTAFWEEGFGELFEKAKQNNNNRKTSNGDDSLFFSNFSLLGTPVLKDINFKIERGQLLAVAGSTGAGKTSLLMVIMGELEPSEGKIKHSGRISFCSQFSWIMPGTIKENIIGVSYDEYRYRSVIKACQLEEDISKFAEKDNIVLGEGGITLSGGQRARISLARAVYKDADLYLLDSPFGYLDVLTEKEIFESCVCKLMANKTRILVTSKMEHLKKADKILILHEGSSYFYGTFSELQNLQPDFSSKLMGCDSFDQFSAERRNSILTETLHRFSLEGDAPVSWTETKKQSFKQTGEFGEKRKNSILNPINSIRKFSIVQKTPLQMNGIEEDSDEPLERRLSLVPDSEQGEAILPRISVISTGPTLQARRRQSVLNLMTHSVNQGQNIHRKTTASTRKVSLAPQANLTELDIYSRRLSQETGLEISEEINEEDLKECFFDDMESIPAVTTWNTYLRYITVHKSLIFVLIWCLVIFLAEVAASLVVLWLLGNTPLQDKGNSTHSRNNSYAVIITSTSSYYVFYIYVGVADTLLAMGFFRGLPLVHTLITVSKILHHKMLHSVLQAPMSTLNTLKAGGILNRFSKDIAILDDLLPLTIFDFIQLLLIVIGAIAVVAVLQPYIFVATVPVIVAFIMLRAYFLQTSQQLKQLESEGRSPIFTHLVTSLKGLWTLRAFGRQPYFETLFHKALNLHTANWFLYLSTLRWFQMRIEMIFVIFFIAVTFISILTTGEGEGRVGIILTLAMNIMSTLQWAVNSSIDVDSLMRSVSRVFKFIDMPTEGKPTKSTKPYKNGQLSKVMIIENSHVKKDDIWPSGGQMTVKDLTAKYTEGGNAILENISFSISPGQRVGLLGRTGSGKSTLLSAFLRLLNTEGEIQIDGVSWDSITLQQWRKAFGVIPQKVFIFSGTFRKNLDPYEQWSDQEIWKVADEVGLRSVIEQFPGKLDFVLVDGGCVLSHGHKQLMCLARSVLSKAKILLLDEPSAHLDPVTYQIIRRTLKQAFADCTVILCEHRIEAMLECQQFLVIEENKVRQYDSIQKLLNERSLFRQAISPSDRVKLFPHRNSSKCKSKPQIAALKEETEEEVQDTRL

EC50 (CFTR; Table 11): < 1000 nM
Emax (CFTR; [2]): > 60%
Compound: COCc1cccc(CN2C(=O)c3cccc(c3)S(=O)(=O)Nc3nc(cc(-c4c(C)cccc4C)n3)OC[C@H]2CC(C)(C)C)n1 [Compound 130, (11R)-6-(2,6-Dimethylphenyl)-11-(2,2-dimethylpropyl)-12-[[6-(methoxymethyl)-2-pyridyl]methyl]-2,2-dioxo-9-oxa-2λ^6-thia-3,5,12,19-tetrazatricyclo[12.3.1.14,8]nonadeca-1(18),4(19),5,7,14,16-hexaen-13-one]
ring closure, yield after HPLC ([1]; from COCc1cccc(CN[C@@H](COc2cc(-c3c(C)cccc3C)nc(NS(=O)(=O)c3cccc(C(=O)O)c3)n2)CC(C)(C)C)n1, CDMT/NMM, 3.0 h, 2 steps): 10%

activation at 10 µM (CFTR; [3]): > 60%
Compound: Cc1cccc(C)c1-c1cc2nc(n1)NS(=O)(=O)c1cccc(c1)C(=O)N(Cc1cn(C)nn1)[C@H](CC(C)(C)C)CO2 [Compound 140, (11R)-6-(2,6-Dimethylphenyl)-11-(2,2-dimethylpropyl)-12-[(1-methyltriazol-4-yl)methyl]-2,2-dioxo-9-oxa-2λ^6-thia-3,5,12,19-tetrazatricyclo[12.3.1.14,8]nonadeca-1(18),4(19),5,7,14,16-hexaen-13-one]
ring closure, yield after HPLC ([1]; from Cc1cccc(C)c1-c1cc(OC[C@@H](CC(C)(C)C)NCc2cn(C)nn2)nc(NS(=O)(=O)c2cccc(C(=O)O)c2)n1, HATU/DIEA, 29.1 mM, 15.0 h): 25%

EC50 (CFTR; Table 11): < 1000 nM
Emax (CFTR; [2]): > 60%
Compound: Cc1cccc(C)c1-c1cc2nc(n1)NS(=O)(=O)c1cccc(c1)C(=O)N(Cc1nccc(C(F)(F)F)n1)[C@H](CC(C)(C)C)CO2 [Compound 122, (11R)-6-(2,6-Dimethylphenyl)-11-(2,2-dimethylpropyl)-12-{[4-(trifluoromethyl)pyrimidin-2-yl]methyl}-9-oxa-2λ^6-thia-3,5,12,19-tetraazatricyclo[12.3.1.14,8]nonadeca-1(17),4,6,8(19),14(18),15-hexaene-2,2,13-trione]
ring closure, yield after HPLC ([1]; from Cc1cccc(C)c1-c1cc(OC[C@@H](CC(C)(C)C)NCc2nccc(C(F)(F)F)n2)nc(NS(=O)(=O)c2cccc(C(=O)O)c2)n1, CDMT/NMM, 27.3 mM): 48%

activation at 10 µM (CFTR; Table 10, read-out: HBE activity at 10 (μM) (%)): > 60%
Compound: Cc1cccc(C)c1-c1cc2nc(n1)NS(=O)(=O)c1cccc(c1)C(=O)N(Cc1cnn3ccccc13)[C@H](CC(C)(C)C)CO2 [Compound 139, (11R)-6-(2,6-Dimethylphenyl)-11-(2,2-dimethylpropyl)-12-({pyrazolo[1,5-a]pyridin-3-yl}methyl)-9-oxa-2λ^6-thia-3,5,12,19-tetraazatricyclo[12.3.1.14,8]nonadeca-1(17),4,6,8(19),14(18),15-hexaene-2,2,13-trione]
ring closure, yield after HPLC ([1]; from Cc1cccc(C)c1-c1cc(OC[C@@H](CC(C)(C)C)NCc2cnn3ccccc23)nc(NS(=O)(=O)c2cccc(C(=O)O)c2)n1, HATU/DIEA, 29.4 mM, 4.0 h): 57%

EC50 (CFTR; Table 10): < 1000 nM
Emax (CFTR; Table 10, read-out: HBE Max activity (%)): > 60%
Compound: COCCN(C)c1cnc(CN2C(=O)c3cccc(c3)S(=O)(=O)Nc3nc(cc(-c4c(C)cccc4C)n3)OC[C@H]2CC(C)(C)C)nc1 [Compound 114, (11R)-6-(2,6-Dimethylphenyl)-11-(2,2-dimethylpropyl)-12-[[5-[2-methoxyethyl(methyl)amino]pyrimidin-2-yl]methyl]-2,2-dioxo-9-oxa-2λ^6-thia-3,5,12,19-tetrazatricyclo[12.3.1.14,8]nonadeca-1(18),4(19),5,7,14,16-hexaen-13-one]
ring closure, yield after HPLC ([1]; from 3-[[4-(2,6-dimethylphenyl)-6-[(2R)-2-[[5-[2-methoxyethyl(methyl)amino]pyrimidin-2-yl]methylamino]-4,4-dimethyl-pentoxy]pyrimidin-2-yl]sulfamoyl]benzoic acid (Dihydrochloride salt), HATU/DIEA, 10.5 mM, 25.0 °C): 53%

EC50 (CFTR; Table 11): < 1000 nM
Emax (CFTR; [2]): > 60%
Compound: Cc1cccc(C)c1-c1cc2nc(n1)NS(=O)(=O)c1cccc(c1)C(=O)N(Cc1cc(C3CC3)no1)[C@H](CC(C)(C)C)CO2 [Compound 137, (11R)-12-[(3-Cyclopropyl-1,2-oxazol-5-yl)methyl]-6-(2,6-dimethylphenyl)-11-(2,2-dimethylpropyl)-9-oxa-2λ^6-thia-3,5,12,19-tetraazatricyclo[12.3.1.14,8]nonadeca-1(17),4(19),5,7,14(18),15-hexaene-2,2,13-trione]
ring closure, yield after HPLC ([1]; from Cc1cccc(C)c1-c1cc(OC[C@@H](CC(C)(C)C)NCc2cc(C3CC3)no2)nc(NS(=O)(=O)c2cccc(C(=O)O)c2)n1, HATU/TEA, 15.4 mM, 2.0 h): 44%

activation at 10 µM (CFTR; [3]): > 60%
EC50 (CFTR; Table 11): < 1000 nM
Emax (CFTR; [2]): > 60%
Compound: Cc1cccc(C)c1-c1cc2nc(n1)NS(=O)(=O)c1cccc(c1)C(=O)N(Cc1ncc(NCC(C)(C)C)cn1)[C@H](CC(C)(C)C)CO2 [Compound 116, (11R)-6-(2,6-Dimethylphenyl)-11-(2,2-dimethylpropyl)-12-[[5-(2,2-dimethylpropylamino)pyrimidin-2-yl]methyl]-2,2-dioxo-9-oxa-2λ^6-thia-3,5,12,19-tetrazatricyclo[12.3.1.14,8]nonadeca-1(18),4(19),5,7,14,16-hexaen-13-one]
ring closure, yield after HPLC ([1]; from 3-[[4-(2,6-dimethylphenyl)-6-[(2R)-2-[[5-(2,2-dimethylpropylamino)pyrimidin-2-yl]methylamino]-4,4-dimethyl-pentoxy]pyrimidin-2-yl]sulfamoyl]benzoic acid (Dihydrochloride salt), HATU/DIEA, 23.6 mM, 25.0 °C): 15%
